For one data set, the target named is TF/VIIa (Homo sapiens, UniProt P08709). Nature of the data set: Inhibition of TF/VIIa. The class given is biochemical. The text has this:
The inhibition of factor VIIa by the compounds according to the invention and the measurement of the anticoagulant and antithrombotic activity can be determined by conventional in-vitro or in-vivo methods. A conventional method for the measurement of the inhibition of factor VIIa is described, for example, by H. F. Ronning et al. in Thrombosis Research 1996, 84, 73-81.

A further data set concerns the target factor Xa, human (Homo sapiens, UniProt P00742). Put plainly: Inhibition of factor Xa. The class given is biochemical. An excerpt:
The inhibition of factor Xa by the compounds according to the invention and the measurement of the anticoagulant and antithrombotic activity can be determined by conventional in-vitro or in-vivo methods. A suitable method is described, for example, by J. Hauptmann et al. in Thrombosis and Haemostasis 1990, 63, 220-223.
The inhibition of factor Xa can be measured, for example, by the method of T. Hara et al. in Thromb. Haemostas. 1994, 71, 314-319.

The IC50 is the concentration that inhibits the measured activity by half. Read a low IC50 as greater potency in that assay. The melting point is the temperature of the solid-liquid transition.

factor Xa, human, sequence (P00742 235-488 limits assumed): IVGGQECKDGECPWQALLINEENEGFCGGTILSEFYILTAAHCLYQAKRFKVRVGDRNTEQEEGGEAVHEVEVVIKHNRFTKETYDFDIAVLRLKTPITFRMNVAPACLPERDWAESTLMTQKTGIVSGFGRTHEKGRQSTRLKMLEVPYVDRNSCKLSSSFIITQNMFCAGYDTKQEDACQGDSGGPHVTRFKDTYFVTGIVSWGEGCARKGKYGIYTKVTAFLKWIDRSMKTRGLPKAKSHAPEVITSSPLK
factor Xa, human, sequence (P00742 41-179 limits assumed): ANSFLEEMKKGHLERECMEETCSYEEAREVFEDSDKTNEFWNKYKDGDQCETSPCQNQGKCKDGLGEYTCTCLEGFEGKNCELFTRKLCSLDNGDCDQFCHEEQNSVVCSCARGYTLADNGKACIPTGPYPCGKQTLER
TF/VIIa, sequence (P08709 213-466 limits assumed): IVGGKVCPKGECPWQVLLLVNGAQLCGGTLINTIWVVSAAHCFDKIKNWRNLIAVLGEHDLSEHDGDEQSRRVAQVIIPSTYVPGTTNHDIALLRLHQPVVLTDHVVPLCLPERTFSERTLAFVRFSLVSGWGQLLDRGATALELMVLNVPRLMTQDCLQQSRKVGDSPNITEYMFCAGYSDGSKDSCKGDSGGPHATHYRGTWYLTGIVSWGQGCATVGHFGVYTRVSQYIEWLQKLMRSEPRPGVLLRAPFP
TF/VIIa, sequence (P08709 61-212 limits assumed): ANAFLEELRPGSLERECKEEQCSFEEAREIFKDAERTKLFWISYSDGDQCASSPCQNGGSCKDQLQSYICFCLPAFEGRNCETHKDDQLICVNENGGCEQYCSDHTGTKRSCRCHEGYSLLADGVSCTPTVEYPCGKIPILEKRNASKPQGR
TF/VIIa, sequence (P13726 33-295 partner): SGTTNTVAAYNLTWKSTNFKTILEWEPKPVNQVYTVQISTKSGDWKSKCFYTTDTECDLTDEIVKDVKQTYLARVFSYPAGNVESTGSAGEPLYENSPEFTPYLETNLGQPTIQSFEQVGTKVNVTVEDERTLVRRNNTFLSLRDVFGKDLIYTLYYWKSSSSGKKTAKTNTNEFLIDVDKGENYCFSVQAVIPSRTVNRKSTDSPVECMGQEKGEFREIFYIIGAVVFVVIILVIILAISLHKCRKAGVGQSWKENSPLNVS

Compound `CCCN(Cc1cccc(C(=N)N)c1)C(=O)Oc1ccc(-c2ccccc2S(N)(=O)=O)cc1` [Example 2.3, 2′-aminosulfonylbiphenyl-4-yl (3-amidinobenzyl)propylcarbamate] came in with a melting point of 119 to 120 °C. The midpoint of inhibition against TF/VIIa, the IC50, lay at 0.35 µM. For the same compound, at factor Xa, human, half-maximal inhibition (IC50) required 0.45 µM.
For the compound `CCCN(Cc1cccc(C(=N)N)c1)C(=O)Oc1ccc(-c2ccccc2S(C)(=O)=O)cc1` [Example 3.3, 2′-methylsulfonylbiphenyl-4-yl (3-amidinobenzyl)propylcarbamate], the half-maximal inhibitory concentration (IC50) was determined as 0.13 µM on TF/VIIa and 0.34 µM on factor Xa, human.

For the origin of these results see patent US20030199698A1, “Carbamic acid esters as inhibitors of factor xa” (priority 2000, published 2003).
